The record followed here is US20250018046A1, “COMPOUNDS FOR TARGETING DEGRADATION OF IRAK4 PROTEINS” (BIOGEN MA INC, priority 2021, published 2025).

For the assay, the target named is T1, IRAK4 (Homo sapiens, UniProt Q9NWZ3).
T1 construct: knocking-in a HiBiT fusion tag into the C-terminal of the IRAK4 gene in 293T cells; host or cells: 293T cells, knock-in of HiBiT at the endogenous IRAK4 locus
T1 sequence (Q9NWZ3 1-460): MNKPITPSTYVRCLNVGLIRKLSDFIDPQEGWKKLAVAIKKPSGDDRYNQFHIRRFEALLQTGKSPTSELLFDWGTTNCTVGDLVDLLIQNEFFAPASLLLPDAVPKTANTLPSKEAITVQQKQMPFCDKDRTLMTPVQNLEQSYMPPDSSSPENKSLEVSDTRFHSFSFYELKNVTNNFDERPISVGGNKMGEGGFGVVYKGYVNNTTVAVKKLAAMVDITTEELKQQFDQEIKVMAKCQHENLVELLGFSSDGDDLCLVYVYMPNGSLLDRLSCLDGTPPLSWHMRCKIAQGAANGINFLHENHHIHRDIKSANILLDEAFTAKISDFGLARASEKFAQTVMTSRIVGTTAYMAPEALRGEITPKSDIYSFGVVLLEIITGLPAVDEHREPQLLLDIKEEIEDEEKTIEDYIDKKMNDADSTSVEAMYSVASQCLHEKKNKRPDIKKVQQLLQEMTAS
The assay is described as follows: IRAK4 degradation assay using the HiBiT Method. It counts as cell-based. The conditions noted are these: 293T cells expressing HiBiT-tagged IRAK4; 6-hour incubation; Nano-Glo HiBiT Lytic Assay luminescence. The method, then:
Selected compounds were tested in an IRAK4 degradation assay using the HiBiT Method.
Phenol red-free Dulbecco's modified Eagle medium (DMEM) and fetal bovine serum (FBS) were purchased from Gibco (Grand Island, NY, USA). The Nano-Glo© HiBiT Lytic Assay System was purchased from Promega (Madison, WI, USA). Cell culture flasks and 384-well microplates were acquired from VWR (Radnor, PA, USA). The 293T cell line was engineered by knocking-in a HiBiT fusion tag into the C-terminal of the IRAK4 gene in 293T cells (Synthego, Redwood City, CA, USA).
IRAK4 degradation was measured via the quantification of luminescent signals using the Nano-Glo© HiBiT Lytic Assay kit. Test compounds were added to 384-well plates in duplicate using an 11-point half-log dilution series, with the highest dose set at 10 mM. 293T cells expressing HiBiT-tagged IRAK4 were then added into 384-well plates at a cell density of 10,000 cells per well. The plates were kept at 37° C. with 5% CO2 for 6 hours. Cells that were treated only with DMSO served as the negative control; wells that contained only assay media served as the background control. After the 6-hour incubation, Nano-Glo® HiBiT Lytic Assay reagents were added to the cells. Luminescence was acquired using an EnVision® Multilabel Reader (PerkinElmer, Santa Clara, CA, USA).

By DC50 is commonly meant the concentration at which degradation of the target reaches its halfway point. Low readings indicate a more potent degrader, high ones a less potent degrader. `CC(C)Oc1cc2nc(C3CCN(CC(=O)N4CCN(c5cc6c(cc5F)c(N5CCC(=O)NC5=O)nn6C)CC4)CC3)cn2cc1NC(=O)c1cccc(C(F)(F)F)n1` [Example 18, N-(2-(1-(2-(4-(3-(2,4-dioxotetrahydropyrimidin-1(2H)-yl)-5-fluoro-1-methyl-1H-indazol-6-yl)piperazin-1-yl)-2-oxoethyl)piperidin-4-yl)-7-isopropoxyimidazo[1,2-a]pyridin-6-yl)-6-(trifluoromethyl)picolinamide]: the DC50 was in the range of 10 to 100 nM. Turning to `CC(C)Oc1cc2nc(C3CCN(CC(=O)N4CCN(CCc5ccc(NC6CCC(=O)NC6=O)cc5)CC4)CC3)cn2cc1NC(=O)c1cccc(C(F)(F)F)n1` (stereo not drawn) [Example 19, N-[2-[1-[2-[4-[2-[4-[(2,6-dioxo-3-piperidyl)amino]phenyl]ethyl]piperazin-1-yl]-2-oxo-ethyl]-4-piperidyl]-7-isopropoxy-imidazo[1,2-a]pyridin-6-yl]-6-(trifluoromethyl) pyridine-2-carboxamide], the DC50 fell in the range of 10 to 100 nM.

For `CC(C)Oc1cc2nc(C3CCN(CC(=O)N4CCN(Cc5ccc(NC6CCC(=O)NC6=O)cc5)CC4)CC3)cn2cc1NC(=O)c1cccc(C(F)(F)F)n1` (stereo not drawn) [Example 20, N-[2-[1-[2-[4-[[4-[(2,6-dioxo-3-piperidyl)amino]phenyl]methyl]piperazin-1-yl]-2-oxo-ethyl]-4-piperidyl]-7-isopropoxy-imidazo[1,2-a]pyridin-6-yl]-6-(trifluoromethyl) pyridine-2-carboxamide], the 50% degradation concentration (DC50) lay in the range of 100 to 500 nM. Compound `CC(C)Oc1cc2nc(C3CCN(CC(=O)N4CCC(c5ccc(OC6CCC(=O)NC6=O)cc5)CC4)CC3)cn2cc1NC(=O)c1cccc(C(F)(F)F)n1` (stereo not drawn) [Example 21, N-[2-[1-[2-[4-[4-[(2,6-dioxo-3-piperidyl)oxy]phenyl]-1-piperidyl]-2-oxo-ethyl]-4-piperidyl]-7-isopropoxy-imidazo[1,2-a]pyridin-6-yl]-6-(trifluoromethyl)pyridine-2-carboxamide] came in with a DC50 of 10 to 100 nM. As for `CC(C)Oc1cc2nc(C3CCN(CC(=O)N4CCN(c5ccc(C6CCC(=O)NC6=O)cc5)CC4)CC3)cn2cc1NC(=O)c1cccc(C(F)(F)F)n1` (stereo not drawn) [Example 22, N-[2-[1-[2-[4-[4-(2,6-dioxo-3-piperidyl)phenyl]piperazin-1-yl]-2-oxo-ethyl]-4-piperidyl]-7-isopropoxy-imidazo[1,2-a]pyridin-6-yl]-6-(trifluoromethyl)pyridine-2-carboxamide], the figure is 10 to 100 nM; as for `CC(C)Oc1cc2nc(C3CCN(CC(=O)N4CCC(c5ccc(NC6CCC(=O)NC6=O)cc5)CC4)CC3)cn2cc1NC(=O)c1cccc(C(F)(F)F)n1` (stereo not drawn) [Example 23, N-[2-[1-[2-[4-[4-[(2,6-dioxo-3-piperidyl)amino]phenyl]-1-piperidyl]-2-oxo-ethyl]-4-piperidyl]-7-isopropoxy-imidazo[1,2-a]pyridin-6-yl]-6-(trifluoromethyl)pyridine-2-carboxamide], 10 to 100 nM; as for `CC(C)Oc1cc2nc(C3CCN(CC(=O)N4CCC(c5ccc(NC6CCC(=O)NC6=O)cc5F)CC4)CC3)cn2cc1NC(=O)c1cccc(C(F)(F)F)n1` (stereo not drawn) [Example 24, N-[2-[1-[2-[4-[4-[(2,6-dioxo-3-piperidyl)amino]-2-fluoro-phenyl]-1-piperidyl]-2-oxo-ethyl]-4-piperidyl]-7-isopropoxy-imidazo[1,2-a]pyridin-6-yl]-6-(trifluoromethyl)pyridine-2-carboxamide], 10 to 100 nM.

The compound `CC(C)Oc1cc2nc(C3CCN(CC(=O)N4CCC(c5ccc(CN6CCC(=O)NC6=O)cc5)CC4)CC3)cn2cc1NC(=O)c1cccc(C(F)(F)F)n1` [Example 25, N-[2-[1-[2-[4-[4-[(2,4-dioxohexahydropyrimidin-1-yl)methyl]phenyl]-1-piperidyl]-2-oxo-ethyl]-4-piperidyl]-7-isopropoxy-imidazo[1,2-a]pyridin-6-yl]-6-(trifluoromethyl) pyridine-2-carboxamide] had a half-maximal degradation concentration (DC50) of 100 to 500 nM. The result for `CC(C)Oc1cc2nc(C3CCN(CC(=O)N4CCN(c5ccc6c(N7CCC(=O)NC7=O)nn(C)c6c5)CC4)CC3)cn2cc1NC(=O)c1cccc(C(F)(F)F)n1` [Example 26, N-[2-[1-[2-[4-[3-(2,4-dioxohexahydropyrimidin-1-yl)-1-methyl-indazol-6-yl]piperazin-1-yl]-2-oxo-ethyl]-4-piperidyl]-7-isopropoxy-imidazo[1,2-a]pyridin-6-yl]-6-(trifluoromethyl)pyridine-2-carboxamide] reads 100 to 500 nM. `CC(C)Oc1cc2nc(C3CCN(CC(=O)N4CCN(c5ccc(NC6CCC(=O)NC6=O)cc5)CC4)CC3)cn2cc1NC(=O)c1cccc(C(F)(F)F)n1` (stereo not drawn) [Example 27, N-[2-[1-[2-[4-[4-[(2,6-dioxo-3-piperidyl)amino]phenyl]piperazin-1-yl]-2-oxo-ethyl]-4-piperidyl]-7-isopropoxy-imidazo[1,2-a]pyridin-6-yl]-6-(trifluoromethyl)pyridine-2-carboxamide] returned a DC50 of 100 to 500 nM.

On to `CC(C)Oc1cc2nc(C3CCN(CC(=O)N4CCN(c5ccc(OC6CCC(=O)NC6=O)cc5)CC4)CC3)cn2cc1NC(=O)c1cccc(C(F)(F)F)n1` (stereo not drawn) [Example 28, N-[2-[1-[2-[4-[4-[(2,6-dioxo-3-piperidyl)oxy]phenyl]piperazin-1-yl]-2-oxo-ethyl]-4-piperidyl]-7-isopropoxy-imidazo[1,2-a]pyridin-6-yl]-6-(trifluoromethyl)pyridine-2-carboxamide], for which the DC50 was in the range of 10 to 100 nM. In turn, `CC(C)Oc1cc2nc(C3CCN(CC(=O)N4CCC(c5ccc(C6CCC(=O)NC6=O)cc5)CC4)CC3)cn2cc1NC(=O)c1cccc(C(F)(F)F)n1` (stereo not drawn) [Example 29, N-[2-[1-[2-[4-[4-(2,6-dioxo-3-piperidyl)phenyl]-1-piperidyl]-2-oxo-ethyl]-4-piperidyl]-7-isopropoxy-imidazo[1,2-a]pyridin-6-yl]-6-(trifluoromethyl)pyridine-2-carboxamide] yielded a DC50 of 10 to 100 nM. `CC(C)Oc1cc2nc(C3CCN(CCC(=O)N4CCC(c5ccc(NC6CCC(=O)NC6=O)cc5)CC4)CC3)cn2cc1NC(=O)c1cccc(C(F)(F)F)n1` (stereo not drawn) [Example 30, N-[2-[1-[3-[4-[4-[(2,6-dioxo-3-piperidyl)amino]phenyl]-1-piperidyl]-3-oxo-propyl]-4-piperidyl]-7-isopropoxy-imidazo[1,2-a]pyridin-6-yl]-6-(trifluoromethyl)pyridine-2-carboxamide] displayed a DC50 of 100 to 500 nM.

As to `CC(C)Oc1cc2nc(C3CCN(CCC(=O)N4CCC(c5ccc(NC6CCC(=O)NC6=O)cc5F)CC4)CC3)cn2cc1NC(=O)c1cccc(C(F)(F)F)n1` (stereo not drawn) [Example 31, N-[2-[1-[3-[4-[4-[(2,6-dioxo-3-piperidyl)amino]-2-fluoro-phenyl]-1-piperidyl]-3-oxo-propyl]-4-piperidyl]-7-isopropoxy-imidazo[1,2-a]pyridin-6-yl]-6-(trifluoromethyl)pyridine-2-carboxamide], the half-maximal degradation concentration (DC50) lay within 100 to 500 nM. In turn, `CC(C)Oc1cc2nc(C3CCN(CCC(=O)N4CCC(c5ccc(C6CCC(=O)NC6=O)cc5)CC4)CC3)cn2cc1NC(=O)c1cccc(C(F)(F)F)n1` (stereo not drawn) [Example 32, N-[2-[1-[3-[4-[4-(2,6-dioxo-3-piperidyl)phenyl]-1-piperidyl]-3-oxo-propyl]-4-piperidyl]-7-isopropoxy-imidazo[1,2-a]pyridin-6-yl]-6-(trifluoromethyl)pyridine-2-carboxamide] came in with a 50% degradation concentration (DC50) of 100 to 500 nM.
